# In patent US20250163104A1, “MACROCYCLIC IMMUNOMODULATORS” (priority 2021, published 2025):
# *1 amine or outer side, *2 acyl side, *3 side chain or, on linkers, in order; H or OH if unused. Where a SMILES comes first, the peptide text is derived from it. Bridges are numbered along the chain shown (N, C = ends). [ ]: non-standard residue; d: D form. The star is where a group is joined. ξ: configuration not given here. Bip(4'-COOH) = N[C@@H](Cc1ccc(-c2ccc(C(=O)O)cc2)cc1)C(=O)O; Phe(3-CF3) = N[C@@H](Cc1cccc(C(F)(F)F)c1)C(=O)O; Phe(4-COOH) = N[C@@H](Cc1ccc(C(=O)O)cc1)C(=O)O; Phe(3,4-F2) = N[C@@H](Cc1ccc(F)c(F)c1)C(=O)O; X5 = O=C([C@H](Cc1ccc2ncccc2c1)N[*:1])[*:2]; Bip = N[C@@H](Cc1ccc(-c2ccccc2)cc1)C(=O)O; Phe(3-Me) = Cc1cccc(C[C@H](N)C(=O)O)c1; Abu(3S-NH2) = C[C@H](N)[C@H](N)C(=O)O; Phe(2-F) = N[C@@H](Cc1ccccc1F)C(=O)O; AEF = NCCOc1ccc(C[C@H](N)C(=O)O)cc1; Val(3-OH) = CC(C)(O)[C@H](N)C(=O)O; 4Pal = N[C@@H](Cc1ccncc1)C(=O)O; Cha = N[C@@H](CC1CCCCC1)C(=O)O; Cit = NC(=O)NCCC[C@H](N)C(=O)O; Thr(3ξ) = CC(O)[C@H](N)C(=O)O; Tle = CC(C)(C)[C@H](N)C(=O)O; Carboxymethyl = O=C(O)C*; Nle = CCCC[C@H](N)C(=O)O; Orn = NCCC[C@H](N)C(=O)O; Pra = C#CC[C@H](N)C(=O)O; Dab = NCC[C@H](N)C(=O)O; Dap = NC[C@H](N)C(=O)O; NH(CH2)3NH2 = NCCCN*; Propargyl = C#CC*
# Biological target: T1, human PD-1 / PD-L1-Ig binding on Jurkat cell line over-expressing human PD-1 (Jurkat-PD-1) (Homo sapiens, UniProt Q15116)
# T1 construct: expressed in transfected cells; host or cells: Jurkat
# Test: Jurkat-PD-1 Cell Binding High-Content Screening Assay (CBA)
# Format: cell-based
# Conditions: Jurkat-PD-1 cells, PE-labeled PD-L1-Ig 20 nM final; read-out: Jurkat HPD1_PDL1 IC50
# In short: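 Read-out: high-content imaging of PE-tagged PD-L1-Ig bound to Jurkat cells overexpressing human PD-1, after fixation with 4% paraformaldehyde and Hoechst 33342 nuclear staining. Ligand was used at 20 nM final for 1 hour, after a 2 h compound exposure at 37° C in serum-containing DMEM.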
# T1 sequence (Q15116 25-288): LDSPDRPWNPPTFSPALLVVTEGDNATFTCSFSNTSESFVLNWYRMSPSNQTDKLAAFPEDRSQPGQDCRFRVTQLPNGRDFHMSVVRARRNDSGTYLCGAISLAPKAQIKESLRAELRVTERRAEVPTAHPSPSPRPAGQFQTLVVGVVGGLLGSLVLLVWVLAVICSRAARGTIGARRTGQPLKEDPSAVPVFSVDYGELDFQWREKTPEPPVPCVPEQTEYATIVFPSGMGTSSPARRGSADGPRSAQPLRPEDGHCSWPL
row,SMILES,IC50
1,CCCC[C@@H]1NC(=O)[C@H](CCN)NC(=O)[C@@H](CC(C)C)NC(=O)[C@H](CCCN)NC(=O)[C@H](CCCNC(N)=O)NC(=O)[C@H](Cc2ccc(-c3ccccc3)cc2)NC(=O)[C@H](C(C)C)NC(=O)[C@H](Cc2c[nH]c3ccccc23)NC(=O)[C@H](CC(=O)O)NC(=O)[C@H](Cc2ccc(O)cc2)NC(=O)[C@H](CC(N)=O)NC(=O)CSC[C@@H](C(=O)N[C@@H](C)C(N)=O)NC(=O)[C@H]([C@@H](C)O)NC(=O)[C@H](C(C)C)NC1=O [Compound 1162] ({CH2CO}-NYDWV[Bip][Cit][Orn][dL][Dab][Nle]VTCA-NH2; thioether N-14),327 nM
2,Cc1cccc(C[C@@H]2NC(=O)[C@H](CC(=O)O)NC(=O)[C@H](Cc3ccc(OCC(=O)O)cc3)NC(=O)[C@H](Cc3ccc(OCC(=O)O)cc3)NC(=O)CSC[C@@H](C(=O)NCC(N)=O)NC(=O)[C@H](CO)NC(=O)[C@H](C(C)C)NC(=O)[C@H](CC3CCCCC3)NC(=O)[C@H](CCN)NC(=O)[C@@H](CC(C)C)NC(=O)[C@H](CCCN)NC(=O)[C@H](C(C)C)NC(=O)[C@H](Cc3ccc(-c4ccccc4)cc3)NC(=O)[C@H](CC(C)C)NC2=O)c1 [Compound 1650] ({CH2CO}-Y(Carboxymethyl)Y(Carboxymethyl)D[Phe(3-Me)]L[Bip]V[Orn][dL][Dab][Cha]VSCG-NH2; thioether N-14),24.2 nM
3,C#CCOc1ccc(C[C@@H]2NC(=O)[C@H](C(C)C)NC(=O)[C@H](CC3CCCCC3)NC(=O)[C@H](CCN)NC(=O)[C@@H](CC(C)C)NC(=O)[C@H](CCCN)NC(=O)[C@H](Cc3ccc(OCC(=O)O)cc3)NC(=O)[C@H](Cc3ccc(-c4ccccc4)cc3)NC(=O)[C@H](Cc3ccc(OCC(=O)O)cc3)NC(=O)[C@H](Cc3cccc(C)c3)NC(=O)[C@H](CC(=O)O)NC(=O)[C@H](Cc3ccc(OCC(=O)O)cc3)NC(=O)[C@H](CN)NC(=O)CSC[C@@H](C(=O)N[C@@H](CCN)C(N)=O)NC2=O)cc1 [Compound 1816] ({CH2CO}-[Dap]Y(Carboxymethyl)D[Phe(3-Me)]Y(Carboxymethyl)[Bip]Y(Carboxymethyl)[Orn][dL][Dab][Cha]VY(Propargyl)C[Dab]-NH2; thioether N-14),11.9 nM
4,CC(C)C[C@H]1NC(=O)[C@H](CCCN)NC(=O)[C@H](CCC(=O)O)NC(=O)[C@H](Cc2ccc(-c3ccccc3)cc2)NC(=O)[C@H](C(C)C)NC(=O)[C@H](Cc2ccccc2F)NC(=O)[C@H](CC(=O)O)NC(=O)[C@H](Cc2ccncc2)NC(=O)[C@H](Cc2ccncc2)NC(=O)CSC[C@@H](C(=O)N[C@@H](C)C(N)=O)NC(=O)[C@H]([C@@H](C)O)NC(=O)[C@H](C(C)C)NC(=O)[C@H](CC2CCCCC2)NC(=O)[C@H](CCN)NC1=O [Compound 2211] ({CH2CO}-[4Pal][4Pal]D[Phe(2-F)]V[Bip]E[Orn][dL][Dab][Cha]VTCA-NH2; thioether N-14),20.3 nM
5,CC(C)C[C@H]1NC(=O)[C@H](CCCN)NC(=O)[C@H](CCCNC(N)=O)NC(=O)[C@H](Cc2ccc(-c3ccccc3)cc2)NC(=O)[C@H](C(C)C)NC(=O)[C@H](Cc2c[nH]c3ccccc23)NC(=O)[C@H](CC(=O)O)NC(=O)[C@H](Cc2ccc(-c3ccc(C(=O)O)cc3)cc2)NC(=O)[C@H](CN)NC(=O)CSC[C@@H](C(=O)N[C@@H](C)C(N)=O)NC(=O)[C@H]([C@@H](C)O)NC(=O)[C@H](C(C)C)NC(=O)[C@H](CC2CCCCC2)NC(=O)[C@H](CCN)NC1=O [Compound 2089] ({CH2CO}-[Dap][Bip(4'-COOH)]DWV[Bip][Cit][Orn][dL][Dab][Cha]VTCA-NH2; thioether N-14),8.3 nM
6,Cc1cccc(C[C@@H]2NC(=O)[C@H](CC(=O)O)NC(=O)[C@H](Cc3ccc(O)cc3)NC(=O)[C@H](CC(N)=O)NC(=O)CSC[C@@H](C(=O)N[C@@H](C)C(N)=O)NC(=O)[C@H]([C@@H](C)O)NC(=O)[C@H](C(C)C)NC(=O)[C@H](CC3CCCCC3)NC(=O)[C@H](Cc3cnc[nH]3)NC(=O)[C@@H](CC(C)C)NC(=O)[C@H](CCCN)NC(=O)[C@H](C(C)C)NC(=O)[C@H](Cc3ccc(-c4ccccc4)cc3)NC(=O)[C@H](C(C)C)NC2=O)c1 [Compound 1586] ({CH2CO}-NYD[Phe(3-Me)]V[Bip]V[Orn][dL]H[Cha]VTCA-NH2; thioether N-14),17.7 nM
7,CC(C)C[C@H]1NC(=O)[C@H](CCCN)NC(=O)[C@H](CCC(=O)O)NC(=O)[C@H](Cc2ccc(-c3ccccc3)cc2)NC(=O)[C@H](C(C)C)NC(=O)[C@H](Cc2c[nH]c3ccccc23)NC(=O)[C@H](CC(=O)O)NC(=O)[C@H](Cc2ccc3ncccc3c2)NC(=O)[C@H](CC(N)=O)NC(=O)CSC[C@@H](C(=O)N[C@@H](C)C(N)=O)NC(=O)[C@H]([C@@H](C)O)NC(=O)[C@H](C(C)C)NC(=O)[C@H](CC2CCCCC2)NC(=O)[C@H](CCN)NC1=O [Compound 2175] ({CH2CO}-N[X5]DWV[Bip]E[Orn][dL][Dab][Cha]VTCA-NH2; thioether N-14),69.4 nM
8,C#CC[C@H](NC(=O)[C@H](CCN)NC(=O)[C@@H]1CSCC(=O)N[C@@H](CN)C(=O)N[C@@H](Cc2ccc(OCC(=O)O)cc2)C(=O)N[C@@H](CC(=O)O)C(=O)N[C@@H](Cc2cccc(C)c2)C(=O)N[C@@H](Cc2ccc(C(=O)O)cc2)C(=O)N[C@@H](Cc2ccc(-c3ccccc3)cc2)C(=O)N[C@@H](Cc2ccc(C(=O)O)cc2)C(=O)N[C@@H](CCCN)C(=O)N[C@H](CC(C)C)C(=O)N[C@@H](CCN)C(=O)N[C@@H](CC2CCCCC2)C(=O)N[C@@H](C(C)C)C(=O)N[C@@H](CCC(=O)O)C(=O)N1)C(=O)O [Compound 1825] ({CH2CO}-[Dap]Y(Carboxymethyl)D[Phe(3-Me)][Phe(4-COOH)][Bip][Phe(4-COOH)][Orn][dL][Dab][Cha]VEC[Dab][Pra]-OH; thioether N-14),182 nM

# More lines, now with the values ahead:
row,IC50,SMILES
1,8.2 nM,Cc1cccc(C[C@@H]2NC(=O)[C@H](CC(=O)O)NC(=O)[C@H](Cc3ccc(C(=O)O)cc3)NC(=O)[C@H](Cc3ccncc3)NC(=O)CSC[C@@H](C(=O)N[C@@H](C)C(N)=O)NC(=O)[C@H]([C@@H](C)O)NC(=O)[C@H](C(C)C)NC(=O)[C@H](CC(C)C)NC(=O)[C@H](CCN)NC(=O)[C@@H](CC(C)C)NC(=O)[C@H](CCCN)NC(=O)[C@H](C(C)C)NC(=O)[C@H](Cc3ccc(-c4ccccc4)cc3)NC(=O)[C@H](C(C)C)NC2=O)c1 [Compound 1182] ({CH2CO}-[4Pal][Phe(4-COOH)]D[Phe(3-Me)]V[Bip]V[Orn][dL][Dab]LVTCA-NH2; thioether N-14)
2,0.6 nM,CC(C)C[C@H]1NC(=O)[C@H](CCCN)NC(=O)[C@H](Cc2ccc(C(=O)O)cc2)NC(=O)[C@H](Cc2ccc(-c3ccccc3)cc2)NC(=O)[C@H](Cc2ccc(C(=O)O)cc2)NC(=O)[C@H](Cc2cccc(C(F)(F)F)c2)NC(=O)[C@H](CC(=O)O)NC(=O)[C@H](Cc2ccc(C(=O)O)cc2)NC(=O)[C@H]([C@H](C)N)NC(=O)CSC[C@@H](C(=O)N[C@@H](CCN)C(N)=O)NC(=O)[C@H](CO)NC(=O)[C@H](C(C)(C)C)NC(=O)[C@H](CC2CCCCC2)NC(=O)[C@H](CCN)NC1=O [Example 2708] ({CH2CO}-[Abu(3S-NH2)][Phe(4-COOH)]D[Phe(3-CF3)][Phe(4-COOH)][Bip][Phe(4-COOH)][Orn][dL][Dab][Cha][Tle]SC[Dab]-NH2; thioether N-14)
3,737 nM,CC(C)C[C@H]1NC(=O)[C@H](CCCN)NC(=O)[C@H](CCC(=O)O)NC(=O)[C@H](Cc2ccc(-c3ccccc3)cc2)NC(=O)[C@H](C(C)C)NC(=O)[C@H](Cc2c[nH]c3ccccc23)NC(=O)[C@H](CC(=O)O)NC(=O)[C@H](Cc2ccc(OCC(=O)O)cc2)NC(=O)[C@H](CN)NC(=O)CSC[C@@H](C(=O)N[C@@H](C)C(N)=O)NC(=O)[C@H]([C@@H](C)O)NC(=O)[C@H](C(C)C)NC(=O)[C@H](Cc2ccc(OCCN)cc2)NC(=O)[C@H](CCN)NC1=O [Compound 1511] ({CH2CO}-[Dap]Y(Carboxymethyl)DWV[Bip]E[Orn][dL][Dab][AEF]VTCA-NH2; thioether N-14)
4,98 nM,Cc1cccc(C[C@@H]2NC(=O)[C@H](CC(=O)O)NC(=O)[C@H](Cc3ccc(OCC(=O)O)cc3)NC(=O)[C@H](CCN)NC(=O)CSC[C@@H](C(=O)N[C@@H](CO)C(=O)NCCCN)NC(=O)[C@H](C(C)O)NC(=O)[C@H](C(C)(C)O)NC(=O)[C@H](CC3CCCCC3)NC(=O)[C@H](Cc3cnc[nH]3)NC(=O)[C@@H](CC(C)C)NC(=O)[C@H](CCCN)NC(=O)[C@H](Cc3ccc(OCC(=O)O)cc3)NC(=O)[C@H](Cc3ccc(-c4ccccc4)cc3)NC(=O)[C@H](Cc3ccc(OCC(=O)O)cc3)NC2=O)c1 (stereo partly drawn) [Compound 2648] ({CH2CO}-[Dab]Y(Carboxymethyl)D[Phe(3-Me)]Y(Carboxymethyl)[Bip]Y(Carboxymethyl)[Orn][dL]H[Cha][Val(3-OH)][Thr(3ξ)]CS-{NH(CH2)3NH2}; thioether N-14)
5,8.9 nM,CC(C)C[C@H]1NC(=O)[C@H](CCCN)NC(=O)[C@H](CCCCN)NC(=O)[C@H](Cc2ccc(-c3ccccc3)cc2)NC(=O)[C@H](C(C)C)NC(=O)[C@H](Cc2c[nH]c3ccccc23)NC(=O)[C@H](CC(=O)O)NC(=O)[C@H](Cc2ccc(OCC(=O)O)cc2)NC(=O)[C@H](CN)NC(=O)CSC[C@@H](C(=O)N[C@@H](C)C(N)=O)NC(=O)[C@H]([C@@H](C)O)NC(=O)[C@H](C(C)C)NC(=O)[C@H](CC2CCCCC2)NC(=O)[C@H](CCN)NC1=O [Compound 1377] ({CH2CO}-[Dap]Y(Carboxymethyl)DWV[Bip]K[Orn][dL][Dab][Cha]VTCA-NH2; thioether N-14)
6,104 nM,"CC(C)C[C@H]1NC(=O)[C@H](CCCN)NC(=O)[C@H](CCC(=O)O)NC(=O)[C@H](Cc2ccc(-c3ccccc3)cc2)NC(=O)[C@H](C(C)C)NC(=O)[C@H](Cc2c[nH]c3ccccc23)NC(=O)[C@H](CC(=O)O)NC(=O)[C@H](Cc2ccc(OCC(=O)O)cc2)NC(=O)[C@H](CN)NC(=O)CSC[C@@H](C(=O)N[C@@H](C)C(N)=O)NC(=O)[C@H]([C@@H](C)O)NC(=O)[C@H](C(C)C)NC(=O)[C@H](Cc2ccc(F)c(F)c2)NC(=O)[C@H](CCN)NC1=O [Compound 1482] ({CH2CO}-[Dap]Y(Carboxymethyl)DWV[Bip]E[Orn][dL][Dab][Phe(3,4-F2)]VTCA-NH2; thioether N-14)"
